Patent US8716268B2, “Nitrate esters of corticoid compounds useful as diuretics” (priority 2010, dated 2014)
Marks after values point to notes of the source that are not given here.

Experiments:
vasopressin = assay: Plasma vasopressin in rats with decompensated heart failure; assay type: in vivo, Wistar rats; details: 1 mg/kg, 24-hour treatment, mean ± SD
Excerpt: (§1) To determine the effects of corticosteroids on vasopressin axis in HF, 15 Wistar rats with HF were randomized to receive NCX-1015 (n=5), or prednisolone (n=5), or vehicle (n=5).

NPR-A [1] = assay: NPR-A expression in renal medulla of heart failure rats (western blotting); assay type: in vivo, Wistar rats
Description: (§2) To determine the effects of corticosteroids on systemic volume in HF, 15 Wistar rats with HF were randomized to receive NCX-1015 (n=5), or prednisolone (n=5), or vehicle (n=5). HF model was accomplished by left anterior descending artery ligation, and then the survived rats were raised for 12 weeks to have decompensated HF (i.e. HF with fluid accumulation). Parameters on urinary volume and urinary sodium in 12 hours were collected.

AT1 receptor = AT1 receptor density in the kidney of rats with decompensated heart failure (western blotting); assay type: in vivo, Wistar rats; details: 1 mg/kg, 24-hour treatment, mean ± SD
Excerpt: (§3) To determine the effects of corticosteroids on RAAS in HF, 15 Wistar rats with HF were randomized to receive NCX-1015 (n=5), or prednisolone (n=5), or vehicle (n=5).

aldosterone = assay: Plasma aldosterone in rats with decompensated heart failure; assay type: in vivo, Wistar rats; details: 1 mg/kg, 24-hour treatment, mean ± SD
Excerpt: as §3

angiotensin II = assay: Plasma angiotensin II in rats with decompensated heart failure; assay type: in vivo, Wistar rats; details: 1 mg/kg, 24-hour treatment, mean ± SD
Excerpt: as §3

V2 receptor = V2 receptor density in the kidney of rats with decompensated heart failure (western blotting); assay type: in vivo, Wistar rats; details: 1 mg/kg, 24-hour treatment, mean ± SD
Excerpt: as §1

NPR-A [2] = assay: NPR-A expression in IMCD cells (immunofluorescence); assay type: cell-based, Wistar rats; set-up: key to NPR-A expression (24 hours) / NPR-A expression (48 hours): + = low; ++ = moderate; +++ = high; details: for NPR-A expression (24 hours) / NPR-A expression (48 hours): rat IMCD cells
Excerpt: IMCD cells from Wistar rats were isolated and cultured using the method previously described by Ye Q et al.: Endothelin inhibits NPR-A and stimulates eNOS gene expression in rat IMCD cells. Hypertension 41, 675-681 (2003). […] […] The Density of membrane NPR-A in IMCD cells were visualized by immunofluorescence.

[3] = Diuretic effect in rats with decompensated heart failure; assay type: in vivo, Wistar rats; details: 1 mg/kg, 12 hours, mean ± SD
Description: as §2

[4] = Diuretic effect of Dexamethasone in intact Wistar rats; assay type: in vivo; details: 24-hour treatment, Dex 1 mg/kg (RU486 100 mg/kg in combination), mean ± SD
Excerpt: (§4) To determine the effect of glucocorticoids on diuretic effect and NPR-A expression in renal medulla, 15 intact Wistar rats were randomized to receive Dexamethasone (Dex), vehicle and glucocorticoid receptor (GR) antagonist RU 486.

NPR-A [5] = assay: NPR-A expression in renal medulla of intact rats (western blotting); assay type: in vivo; details: intact Wistar rats, 24-hour treatment, Dex 1 mg/kg (RU486 100 mg/kg in combination), mean ± SD
Excerpt: as §4

[6] = 10^−7 mol/L, membrane NPR-A density
[7] = 10^−6 mol/L, membrane NPR-A density (Table 3)
[8] = 10^−6 mol/L, membrane NPR-A density
[9] = 10^−7 mol/L, membrane NPR-A density (Table 3)

| Structure (SMILES) | Plasma vasopressin (vasopressin) | NPR-A expression in the renal medulla, higher than vehicle-treated rats (NPR-A [1]) [%] | AT1 receptor density in the kidney (AT1 receptor) | Plasma aldosterone (aldosterone) [ng/mL] | Plasma angiotensin II (angiotensin II) | V2 receptor density in the kidney (V2 receptor) | Urinary sodium [3] [mmol/12 h] | Urinary volume [3] [ml/12 h] | also measured |
| --- | --- | --- | --- | --- | --- | --- | --- | --- | --- |
| C[C@]12C=CC(=O)C=C1CC[C@@H]1[C@@H]2[C@@H](O)C[C@@]2(C)[C@H]1CC[C@]2(O)C(=O)COC(=O)c1ccc(CO[N+](=O)[O-])cc1 [NCX-1015, prednisolone 21-[(4′-nitro-oxymethyl)benzoate]] | 32.14 ± 5.47 pg/mL | 42.8 | 43.14 ± 7.07 % of vehicle | 0.99 ± 0.09 | 412.20 ± 64.99*^& pg/ml | 54.06 ± 16.15 % of vehicle | 1.43 ± 0.15 | 8.8 ± 1.5 | Dose needed to attain the same effect of prednisolone on renal NPR-A (NPR-A [2]; in vitro, fraction of the prednisolone dose): about 1/10; Time needed to attain the same effect of prednisolone on renal NPR-A (NPR-A [2]; in vitro, fraction of the prednisolone time): about half; NPR-A expression (24 hours) (NPR-A [2]; [6]): ++; NPR-A expression (48 hours) (NPR-A [2]; [6]): +++ |
| C[C@]12CCC(=O)C=C1CC[C@@H]1[C@@H]2[C@@H](O)C[C@@]2(C)[C@H]1CC[C@]2(O)C(=O)CO [hydrocortisone] | – | – | – | – | – | – | – | – | NPR-A expression (24 hours) (NPR-A [2]; [7]): +; NPR-A expression (48 hours) (NPR-A [2]; [7]): ++ |
| C[C@]12C=CC(=O)C=C1CC[C@@H]1[C@@H]2[C@@H](O)C[C@@]2(C)[C@H]1CC[C@]2(O)C(=O)CO [prednisolone] | 45.72 ± 8.35^$ pg/ml | 26.5 | 67.06 ± 12.96 % of vehicle | 1.39 ± 0.26 | 665.86 ± 113.90^$ pg/ml | 79.80 ± 9.44^$ % of vehicle | 1.08 ± 0.1 | 6.1 ± 0.7 | NPR-A expression (24 hours) (NPR-A [2]; [8]): +; NPR-A expression (48 hours) (NPR-A [2]; [8]): ++ |
| C[C@@H]1C[C@H]2[C@@H]3CCC4=CC(=O)C=C[C@]4(C)[C@@]3(F)[C@@H](O)C[C@]2(C)[C@@]1(O)C(=O)CO [Dex, Dexamethasone] | – | – | – | – | – | – | – | – | Urinary sodium [4]: 3.50 ± 0.39 mmol/24 h; Urinary volume [4]: 16.4 ± 2.4 ml/24 h; NPR-A expression (NPR-A [5]): 132.2 ± 9.7* 100% of vehicle |
| C[C@]12CCC(=O)C=C1CC[C@@H]1[C@@H]2[C@@H](O)C[C@@]2(C)[C@H]1CC[C@]2(O)C(=O)COC(=O)c1ccc(CO[N+](=O)[O-])cc1 [NCX-1022] | – | – | – | – | – | – | – | – | NPR-A expression (24 hours) (NPR-A [2]; [9]): ++; NPR-A expression (48 hours) (NPR-A [2]; [9]): +++ |
